Laboratory results: patent US20240358692A1, “TREATMENT OF SCLERODERMA” (Aisa Pharma, Inc., priority 2023, published 2024)

Key:
[1] = test system: participants with SSc-RP; assay: SHAQ - Visual Analog Scale - Pain; format: in vivo, human
Source text: (§1) The standard, validated, patient reported outcome measures tool for SSc patients, the Scleroderma Health Assessment Questionnaire (SHAQ), will be used to assess the participant qualify of life. Details are attached in the Appendix. The participant quality of life will be scored, and a disability index calculated for each questionnaire completed by the patient at Screening and each in-clinic visit. The absolute change in participant quality of life from baseline to the end of each dosing period will be calculated similar to frequency data as before.
(§2) The standard, validated, patient reported outcome measures tool for SSc patients, the SHAQ, was collected at the time points specified in the study schedules (FIG. 2 and FIGS. 4A and 4B) to assess the participant's quality of life. The SHAQ included a Raynaud's VAS that will also be reported separately.
Pain on the SHAQ outcome measure on the first line in table F is a composite of all pain experienced in patients with SSc, comprising joint pain, back pain, headache, odynophagia, skin ulcer related discomfort, Raynaud's, and neuropathic pain. Aisa Pharma believes, based on the biologic attributes and actions of cilnidipine that differ from most dihydropyridine calcium channel antagonists that cilnidipine might have direct analgesic effects in certain pain conditions and in fact has been designated to receive evaluation through the […] Preclinical Pain Screening Platform Program to investigate the drug in multiple in vitro and in vivo preclinical models of pain that are validated and predictive of effects in man.

[2] = test system: participants with SSc-RP; assay: SHAQ - Visual Analog Scale - Intestinal Problems; format: in vivo, human; parameters: Visual Analog Scale-Intestinal Problems, In Clinic Visit (Day 12), Mean / Visual Analog Scale-Intestinal Problems, In Clinic Visit (Day 12), Median / Visual Analog Scale-Intestinal Problems, Change from Baseline, Mean / Visual Analog Scale-Intestinal Problems, Change from Baseline, Median / SHAQ Visual Analogue Scale - Intestinal Problems, In-Clinic Visit (Day 12), Median: scale not given here
Source text: as §1, §2

[3] = Modified ITT Population-Part A, Day 12, dose cilnidipine 10 mg, tadalafil 5 mg, alone or combined as labelled
[4] = Tadalafil 5 mg, SSc patients, PP, Part A

SMILES: CN1CC(=O)N2[C@H](c3ccc4c(c3)OCO4)c3[nH]c4ccccc4c3C[C@@H]2C1=O [Tadalafil]
- Visual Analog Scale-Pain, Change from Baseline, Mean [1, 3]: 1.000
- Visual Analog Scale-Pain, Change from Baseline, Median [1, 3]: 0.800
- Visual Analog Scale-Pain, In Clinic Visit (Day 12), Mean ([1]; Modified ITT Population-Part A, dose cilnidipine 10 mg, tadalafil 5 mg, alone or combined as labelled): 5.300
- SHAQ VAS Pain, Change from Baseline, Max [1, 4]: 1.50
- SHAQ VAS Pain, Change from Baseline, Mean [1, 4]: 1.000
- SHAQ VAS Pain, Change from Baseline, Median [1, 4]: 0.800
- SHAQ VAS Pain, Change from Baseline, Min [1, 4]: 0.70,
- SHAQ VAS Pain, Change from Baseline, Q1 [1, 4]: 0.700,
- SHAQ VAS Pain, Change from Baseline, Q3 [1, 4]: 1.500
- SHAQ VAS Pain, Day 12, Max [1, 4]: 9.20
- SHAQ VAS Pain, Day 12, Mean [1, 4]: 5.300
- SHAQ VAS Pain, Day 12, Median [1, 4]: 5.850
- SHAQ VAS Pain, Day 12, Min [1, 4]: 0.30,
- SHAQ VAS Pain, Day 12, Q1 [1, 4]: 1.900,
- SHAQ VAS Pain, Day 12, Q3 [1, 4]: 8.700
- SHAQ VAS Pain, Percent Change from Baseline, Max [1, 4]: 75.0
- SHAQ VAS Pain, Percent Change from Baseline, Mean [1, 4]: 31.35
- SHAQ VAS Pain, Percent Change from Baseline, Median [1, 4]: 10.81
- SHAQ VAS Pain, Percent Change from Baseline, Min [1, 4]: 8.2,
- SHAQ VAS Pain, Percent Change from Baseline, Q1 [1, 4]: 8.24,
- SHAQ VAS Pain, Percent Change from Baseline, Q3 [1, 4]: 75.00
- Visual Analog Scale-Intestinal Problems, Change from Baseline, Median [2, 3]: 0.000
- Visual Analog Scale-Intestinal Problems, Percent Change from Baseline, Median [2, 3]: 0.00%
- SHAQ VAS Intestinal Problems, Change from Baseline, Max [2, 4]: 1.80
- SHAQ VAS Intestinal Problems, Change from Baseline, Median [2, 4]: 0.000
- SHAQ VAS Intestinal Problems, Change from Baseline, Min [2, 4]: −2.30,
- SHAQ VAS Intestinal Problems, Change from Baseline, Q1 [2, 4]: −1.150,
- SHAQ VAS Intestinal Problems, Change from Baseline, Q3 [2, 4]: 0.900
- SHAQ VAS Intestinal Problems, Day 12, Max [2, 4]: 9.20
- SHAQ VAS Intestinal Problems, Day 12, Mean [2, 4]: 3.025
- SHAQ VAS Intestinal Problems, Day 12, Median [2, 4]: 1.450
- SHAQ VAS Intestinal Problems, Day 12, Min [2, 4]: 0.00,
- SHAQ VAS Intestinal Problems, Day 12, Q1 [2, 4]: 0.050,
- SHAQ VAS Intestinal Problems, Day 12, Q3 [2, 4]: 6.000
- SHAQ VAS Intestinal Problems, Percent Change from Baseline, Max [2, 4]: 24.3
- SHAQ VAS Intestinal Problems, Percent Change from Baseline, Mean [2, 4]: −6.92
- SHAQ VAS Intestinal Problems, Percent Change from Baseline, Median [2, 4]: 0.00
- SHAQ VAS Intestinal Problems, Percent Change from Baseline, Min [2, 4]: −45.1,
- SHAQ VAS Intestinal Problems, Percent Change from Baseline, Q1 [2, 4]: −45.10,
- SHAQ VAS Intestinal Problems, Percent Change from Baseline, Q3 [2, 4]: 24.32
